According to USRE38921E1, “Phenoxyalkylcarboxylic acid derivatives and process for their preparations” (Kyorin Pharmaceutical Co., Ltd., priority 1988, dated 2005):

Columns and labels:
[1] = test system: bronchoconstrictor response induced by leukotriene D4; experiment: Inhibition test of bronchoconstriction in guinea pig; type: in vivo; design: unit not given here; conditions: 2 hours before i.v. leukotriene D4 (3 μg/kg), anesthetized male Hartley guinea pig
Protocol: Male Hartley guinea pig weighing about 450 g was anesthetized with sodium pentobarbital (30 mg/kg,i.p.), and the changes in transpulmonary pressure was measured according to the modified method of Konzett-Rössler (J. Harvey et al., J. Pharmacol. Method. 9, 147-155, 1983). Bronchoconstrictor response was induced by injection of leukotriene D4 (3 μg/kg) into left jugular vein. Further, indomethacin and propranolol were injected into vein of the animal, prior to the injection of leukotriene D4. Test compounds suspended in 5% solution of Gum Arabic were administered orally 2 hours before the injection of leukotriene D4.

CCCc1c(SCCCSc2ccc(C(C)=O)c(OCCCC(=O)O)c2CCC)ccc(C(C)=O)c1O [Example 45]
Inhibition ([1]; dose 1.56 mg/kg p.o.): 22.4
Inhibition ([1]; dose 3.125 mg/kg p.o.): 54.2
Inhibition ([1]; dose 6.25 mg/kg p.o.): 71.3
Inhibition ([1]; dose 12.5 mg/kg p.o.): 72.7
Inhibition ([1]; dose 50 mg/kg p.o.): 96.2

CCCc1c(SCCCOc2ccc(C(C)=O)c(OCCCCCC(=O)O)c2CCC)ccc(C(C)=O)c1O [Example 35]
Inhibition ([1]; dose 6.25 mg/kg p.o.): 10.7
Inhibition ([1]; dose 12.5 mg/kg p.o.): 51.3
Inhibition ([1]; dose 50 mg/kg p.o.): 92.4

CCCc1c(OCCCSc2ccc(C(C)=O)c(OCCCC(=O)OCC)c2CCC)ccc(C(C)=O)c1O [Example 23, Ethyl 4-[6-acetyl-3-[3-(4-acetyl-3-hydroxy-2-propyl-phenoxy)propylthio]-2-propylphenoxy]butyrate]
melting point: 87 to 88 °C

CCCc1c(OCCCSc2ccc(C(C)=O)c(OCCCCCC(=O)O)c2CCC)ccc(C(C)=O)c1O [Example 55]
Inhibition ([1]; dose 6.25 mg/kg p.o.): 36.4
Inhibition ([1]; dose 12.5 mg/kg p.o.): 45.0
Inhibition ([1]; dose 50 mg/kg p.o.): 88.0

CCCc1c(SCCCSc2ccc(C(C)=O)c(OCCCCCCC(=O)O)c2CCC)ccc(C(C)=O)c1O [Example 48]
Inhibition ([1]; dose 3.125 mg/kg p.o.): 33.6
Inhibition ([1]; dose 12.5 mg/kg p.o.): 79.7
Inhibition ([1]; dose 50 mg/kg p.o.): 90.7

CCCc1c(SCCCOc2ccc(C(C)=O)c(OCCCC(=O)O)c2CCC)ccc(C(C)=O)c1O [Example 33, 4-[6-Acetyl-3-[3-(4-acetyl-3-hydroxy-2-propyl-phenylthio)propoxy]-2-propylphenoxy]butyric acid]
Inhibition ([1]; dose 3.125 mg/kg p.o.): 28.0
Inhibition ([1]; dose 6.25 mg/kg p.o.): 40.2
Inhibition ([1]; dose 12.5 mg/kg p.o.): 63.9
Inhibition ([1]; dose 50 mg/kg p.o.): 94.8

CCCc1c([S+]([O-])CCCOc2ccc(C(C)=O)c(OCCCC(=O)OCC)c2CCC)ccc(C(C)=O)c1O (stereo not drawn) [Example 31, Ethyl 4-[6-acetyl-3-[3-(4-acetyl-3-hydroxy-2-propyl-phenylsulfinyl)propoxy]-2-propylphenoxy]butyrate]
melting point: 74 to 76 °C

CCCc1c(S(=O)(=O)CCCOc2ccc(C(C)=O)c(OCCCC(=O)OCC)c2CCC)ccc(C(C)=O)c1O [Example 32, Ethyl 4-[6-acetyl-3-[3-(4-acetyl-3-hydroxy-2-propyl-phenylsulfonyl)propoxy]-2-propylphenoxy]butyrate]
melting point: 77 to 79 °C

CCCc1c(SCCCSc2ccc(C(C)=O)c(OCCCCCC(=O)O)c2CCC)ccc(C(C)=O)c1O [Example 47]
Inhibition ([1]; dose 3.125 mg/kg p.o.): 29.1
Inhibition ([1]; dose 12.5 mg/kg p.o.): 72.5
Inhibition ([1]; dose 50 mg/kg p.o.): 92.9

CCCc1c(SCCCSc2ccc(C(C)=O)c(OCCCCCCCCC(=O)O)c2CCC)ccc(C(C)=O)c1O [Example 49]
Inhibition ([1]; dose 6.25 mg/kg p.o.): 19.1
Inhibition ([1]; dose 12.5 mg/kg p.o.): 58.9
Inhibition ([1]; dose 50 mg/kg p.o.): 77.7

CCCc1c(OCCCSc2ccc(C(C)=O)c(OCCCC(=O)O)c2CCC)ccc(C(C)=O)c1O [Example 53]
Inhibition ([1]; dose 3.125 mg/kg p.o.): 15.2
Inhibition ([1]; dose 6.25 mg/kg p.o.): 50.4
Inhibition ([1]; dose 12.5 mg/kg p.o.): 60.4
Inhibition ([1]; dose 50 mg/kg p.o.): 66.7

CCCc1c(SCCCOc2ccc(C(C)=O)c(OCCCC(=O)OCC)c2CCC)ccc(C(C)=O)c1O [Example 1, Ethyl 4-[6-acetyl-3-[3-(4-acetyl-3-hydroxy-2-propylphenylthio)propoxy]-2-propylphenoxy]butyrate]
melting point: 65 to 66 °C

CCCc1c(SCCCSc2ccc(C(C)=O)c(OCCCCC(=O)O)c2CCC)ccc(C(C)=O)c1O [Example 46]
Inhibition ([1]; dose 3.125 mg/kg p.o.): 38.5
Inhibition ([1]; dose 6.25 mg/kg p.o.): 46.6
Inhibition ([1]; dose 12.5 mg/kg p.o.): 37.5
Inhibition ([1]; dose 50 mg/kg p.o.): 94.2
